One block for each compound: values may come before it.
What was measured:
ROCK1 = ROCK1 (Homo sapiens, UniProt Q13464); test: ROCK assay (Caliper LabChip peptide phosphorylation), ROCK1; type: biochemical; conditions: 5 μM ATP, 1.5 μM peptide substrate
Experimental: The effectiveness of compounds of the present invention as ROCK inhibitors can be determined in a 30 μL assay containing 20 mM HEPES, pH 7.5, 20 mM MgCl2, 0.015% Brij-35, 4 mM DTT, 5 μM ATP and 1.5 μM peptide substrate (FITC-AHA-[…]-OH). Compounds were dissolved in DMSO so that the final concentration of DMSO was <2%, and the reaction was initiated with Rho kinase variants. After incubation, the reaction was terminated by the addition of EDTA and the phosphorylated and non-phosphorylated peptides separated using a LabChip 3000 Reader (Caliper Life Sciences). […] Compounds were tested in dose-response format, and the inhibition of kinase activity was calculated at each concentration of compound. The inhibition data were fit using a curve-fitting program to determine the IC50; i.e., the concentration of compound required to inhibit 50% of kinase activity.”
Representative Examples were tested in the ROCK assay described above and found having ROCK inhibitory activity. A range of ROCK inhibitory activity (IC50 values) of ≦50 μM (50000 nM) was observed. Table A below lists the ROCK IC50 values measured for the following examples.

[1] = tested on: neointimal formation in rats; conditions: model similar to balloon injury; cited from earlier work
[2] = tested on: IL-1 beta-induced coronary stenosis; conditions: porcine, long term treatment; cited from earlier work

Chain of ROCK1 (Q13464 whole entry, species assumed): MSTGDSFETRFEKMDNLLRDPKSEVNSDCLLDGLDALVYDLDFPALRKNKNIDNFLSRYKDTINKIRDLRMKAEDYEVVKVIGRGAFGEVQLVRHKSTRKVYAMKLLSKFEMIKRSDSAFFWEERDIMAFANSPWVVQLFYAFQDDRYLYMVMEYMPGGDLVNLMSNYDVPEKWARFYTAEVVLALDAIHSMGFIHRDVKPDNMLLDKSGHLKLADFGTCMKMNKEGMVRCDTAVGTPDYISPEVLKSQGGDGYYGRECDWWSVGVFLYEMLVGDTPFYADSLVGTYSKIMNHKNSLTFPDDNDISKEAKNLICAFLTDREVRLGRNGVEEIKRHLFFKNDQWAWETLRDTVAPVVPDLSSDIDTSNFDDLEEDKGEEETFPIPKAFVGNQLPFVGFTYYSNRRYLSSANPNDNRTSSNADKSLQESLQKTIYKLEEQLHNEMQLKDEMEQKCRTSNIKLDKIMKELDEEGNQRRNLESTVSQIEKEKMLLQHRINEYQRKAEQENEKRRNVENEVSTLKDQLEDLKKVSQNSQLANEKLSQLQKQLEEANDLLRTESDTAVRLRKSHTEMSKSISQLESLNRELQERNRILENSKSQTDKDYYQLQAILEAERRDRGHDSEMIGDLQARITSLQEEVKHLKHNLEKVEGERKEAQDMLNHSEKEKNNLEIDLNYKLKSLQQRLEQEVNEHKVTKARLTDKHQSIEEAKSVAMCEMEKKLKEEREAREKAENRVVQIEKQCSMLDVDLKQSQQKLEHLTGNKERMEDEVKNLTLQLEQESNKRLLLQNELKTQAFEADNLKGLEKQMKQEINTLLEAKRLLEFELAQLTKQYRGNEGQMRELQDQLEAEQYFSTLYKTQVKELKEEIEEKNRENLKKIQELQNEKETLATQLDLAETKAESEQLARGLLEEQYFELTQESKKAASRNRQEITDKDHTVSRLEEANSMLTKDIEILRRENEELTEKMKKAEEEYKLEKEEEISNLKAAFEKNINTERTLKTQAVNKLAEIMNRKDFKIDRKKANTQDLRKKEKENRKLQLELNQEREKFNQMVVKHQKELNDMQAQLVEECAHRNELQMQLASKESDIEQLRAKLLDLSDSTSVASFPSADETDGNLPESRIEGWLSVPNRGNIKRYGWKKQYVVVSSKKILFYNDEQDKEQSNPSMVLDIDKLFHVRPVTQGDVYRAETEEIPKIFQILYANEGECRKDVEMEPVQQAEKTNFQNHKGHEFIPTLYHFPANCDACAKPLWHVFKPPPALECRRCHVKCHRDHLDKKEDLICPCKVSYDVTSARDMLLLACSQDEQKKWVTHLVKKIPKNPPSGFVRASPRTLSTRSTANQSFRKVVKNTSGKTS

- IC50 (ROCK1): ≥ 50 µM
Structure (SMILES): O=C(Oc1ccc(-c2n[nH]c(=O)c3ccccc23)cc1)N1CCC(c2ccccc2)C1 (stereo not shown) [Example 69, 4-(4-oxo-3,4-dihydrophthalazin-1-yl)phenyl 3-phenylpyrrolidine-1-carboxylate]

Structure (SMILES): C[C@@H](N)[C@H]1CC[C@H](C(=O)Nc2ccncc2)CC1 [Example Y-27632, Y-27632]
- neointimal formation [1]: inhibited neointimal formation

Structure (SMILES): O=S(=O)(c1cccc2cnccc12)N1CCCNCC1 [fasudil]
- coronary constrictive remodeling [2]: promote a regression of coronary constrictive remodeling
- coronary stenosis [2]: progressively reduce coronary stenosis

Reference: US20160090364A1, “PHTHALAZINONES AND ISOQUINOLINONES AS ROCK INHIBITORS” (BRISTOL-MYERS SQUIBB COMPANY, priority 2013, published 2016)
